Data: patent publication US20230321074A1, “USE OF CHIAURANIB IN COMBINATION WITH IMMUNE CHECKPOINT INHIBITOR IN ANTITUMOR THERAPY” (SHENZHEN CHIPSCREEN BIOSCIENCES, CO., LTD., priority 2020, published 2023)
Where “and” joins values, the source holds several entries; their conditions need not be identical. Equal entries are not always repeated. Entries after “also recorded” stand apart in the source; their conditions may differ.

Legend:
[1] = Body weight and tolerability in B-hPD-1/hPD-L1 humanized mice transplanted with MC38-hPD-L1; assay type: in vivo, mouse; conditions: for Body weight change (g) Day 27 of administration / Body weight (g) Day 27 of administration in groups / Body weight (g) before administration: MC38-hPD-L1 model; for Body weight (g) Day 27 of administration in groups / Body weight (g) before administration: mean ± standard error; for Body weight (g) before administration: baseline; for toxic side effects on animals / safety: at test doses: chiauranib 2.5 mg/kg, reference PD-L1 antibody 1 mg/kg and 3 mg/kg
Experimental: (§1) A certain number of cells were cultured and collected, the MC38-hPD-L1 cells resuspended in PBS were subcutaneously inoculated into B-hPD-1/hPD-L1 humanized mice on the right side at a concentration of 5×10^5 cells/0.1 mL and a dose of 0.1 mL/mouse. After an average tumor volume reached about 104 mm^3, appropriate mice were selected according to tumor volume and body weight, and uniformly divided into 6 experimental groups, 8 mice per group, and administration was carried out on the day of grouping.

[2] = test system: MC38-hPD-L1 colon cancer cells; experiment: Efficacy on B-hPD-1/hPD-L1 humanized mouse MC38-hPD-L1 colon cancer model; assay type: in vivo; conditions: for Tumor volume (mm^3) Day 27 of administration in groups / Tumor volume (mm^3) before administration / Tumor weight: mean ± standard error; for inhibitory effect on growth of MC38-hPD-L1 subcutaneously transplanted tumors (experiment summary): at test doses: chiauranib 2.5 mg/kg; for inhibitory effect on growth of MC38-hPD-L1 subcutaneously transplanted tumors (experiment summary) / inhibitory effect on growth of MC38-hPD-L1 subcutaneously transplanted tumors (tumor volume) / inhibitory effect on growth of MC38-hPD-L1 subcutaneously transplanted tumors (tumor weight): reference PD-L1 antibody 1 mg/kg and 3 mg/kg; for Tumor volume (mm^3) before administration: baseline; for inhibitory effect on growth of MC38-hPD-L1 subcutaneously transplanted tumors (tumor volume): day 27, P<0.05 vs control; for inhibitory effect on growth of MC38-hPD-L1 subcutaneously transplanted tumors (tumor volume) / inhibitory effect on growth of MC38-hPD-L1 subcutaneously transplanted tumors (tumor weight): chiauranib 2.5 mg/kg; for inhibitory effect on growth of MC38-hPD-L1 subcutaneously transplanted tumors (tumor weight) / Tumor weight: end of experiment; for inhibitory effect on growth of MC38-hPD-L1 subcutaneously transplanted tumors (tumor weight): P<0.05 vs control; for Tumor weight / TGITV (%) / TGITW (%): day 27; for TGITV (%): tumor inhibition rate by tumor volume; for TGITW (%): tumor weight inhibition
Experimental: Mouse colon cancer MC38 cells were purchased from Shunran Biology, cultured in an incubator under 5% CO2 at 37° C., and a medium was Dulbecco's Modified Eagle's Medium containing 10% inactivated fetal bovine serum. Biocytogen carried out genetic modification on the MC38 cells to enable the MC38 cells to overexpress human PD-L1, and knocked out mouse PD-L1, and the cells were named MC38-hPD-L1 cells. A reference PD-L1 antibody used in the experiment was constructed and produced by the in-house laboratory according to a sequence of the marketed antibody drug MPDL3280A.
as §1
Results were recorded, tumor inhibition rates (TGITV) were calculated, and statistical analysis between groups was carried out according to tumor volume.

[3] = cited from earlier work
[4] = Body weight, deaths and tolerability in H22 tumor-bearing BALB/c mice; assay type: in vivo; conditions: H22 model
[5] = test system: spleen lymphocyte subsets CD4 and CD8; experiment: Proportions of spleen lymphocyte subsets in CT-26 tumor-bearing mice (flow cytometry); assay type: in vivo, mouse; conditions: CT-26 tumor-bearing Balb/c mice; chiauranib 20 mg/kg intragastric once a day; PD-1 antibody 10 mg/kg i.p. twice a week; after last administration on 14th day
Experimental: 8 days after cell inoculation, tumors grew to an average volume of about 100 mm^3, and the tumor-bearing mice were randomly divided into four groups (9 mice per group), that is, a solvent control group, a chiauranib group (20 mg/kg, intragastric administration, once a day), a PD-1 antibody group (10 mg/kg, intraperitoneal injection, twice a week), and a chiauranib and PD-1 antibody combined administration group, marked, raised in separate cages, administered daily in groups, and observed for tumor formation. The longest diameter (length) and the widest diameter (width) perpendicular to the longest diameter of the tumor was measured by using a vernier caliper every 2 days, and the tumor volume was calculated according to a formula: TS=length×(width)^2/2, and recorded. The mice were subjected to intragastric administration once a day regularly, and after the last administration on the 14th day, the mice were sacrificed to take the spleens and make a single cell suspension. 1×10^6 spleen cells were taken and stained with fluorescein labelled anti-CD4 and CD8 antibodies (1:200) at 4° C. for 30 min. After being washed, the cells were resuspended in PBS, and detected by using a flow cytometer FACSCanto II. […]

[6] = test system: mouse liver cancer H22 cells; experiment: Efficacy on female BALB/c mouse models subcutaneously transplanted with mouse liver cancer H22 cell line; assay type: in vivo
Experimental: Mouse liver cancer H22 cells (purchased from CCTCC; cell No. TC-00011) were cultured in an RPMI-1640 medium (purchased from Gibco) containing 10% fetal bovine serum. H22 cells in exponential growth phase were collected, resuspended in PBS to an appropriate concentration, and subcutaneously inoculated into mice. Female mice were subcutaneously inoculated with 1×10^6 H22 cells on the right front side. After tumors grew to an average volume of 104 mm^3, the mice were randomly grouped (see Table 1) according to the tumor size, administration was carried out on the day of grouping, and the day of inoculation of tumor cells was defined as day 0.
On the 19th day of the experiment (day 15 of administration in groups), an average tumor volume of the solvent control group was measured to be 2060.99 mm^3, the experiment was completed, photos of the tumor-bearing mice were taken, the tumors were taken out and weighed, and photos of the tumors were taken. A formula for calculating tumor volume: tumor volume (mm^3)=1/2×(a×b^2) (where, a represents a long diameter, and b represents a short diameter).

[7] = test system: colonic cancer cell line CT-26; experiment: Efficacy on tumor Balb/c mouse models inoculated with colonic cancer cell line CT-26 (tumor volume); assay type: in vivo; conditions: CT-26 in Balb/c mice; chiauranib 20 mg/kg intragastric once a day; PD-1 antibody 10 mg/kg i.p. twice a week; vs solvent control
Experimental: A large number of CT-26 cells were cultured and kept in a logarithmic growth state. After the number of cells reached a required level, the cells were digested and collected by trypsin, thoroughly washed twice with a large amount of PBS to remove trypsin and serum components, centrifuged at room temperature at 800 rpm for 10 min, and a supernatant was discarded. The cells were resuspended in DMEM without FBS, and the cell concentration was adjusted to 5×10^6 cells/mL.
Under sterile conditions, the cell suspension was injected subcutaneously into the back of Balb/c mice at 100 μL/injection, one injection per mouse. […]
8 days after cell inoculation, tumors grew to an average volume of about 100 mm^3, and the tumor-bearing mice were randomly divided into four groups (9 mice per group), that is, a solvent control group, a chiauranib group (20 mg/kg, intragastric administration, once a day), a PD-1 antibody group (10 mg/kg, intraperitoneal injection, twice a week), and a chiauranib and PD-1 antibody combined administration group, marked, raised in separate cages, administered daily in groups, and observed for tumor formation. The longest diameter (length) and the widest diameter (width) perpendicular to the longest diameter of the tumor was measured by using a vernier caliper every 2 days, and the tumor volume was calculated according to a formula: TS=length×(width)^2/2, and recorded. […]

[8] = Reference PD-L1 antibody 3 mg/kg i.p. Q3D, chiauranib 2.5 mg/kg p.o. QD in the combination
[9] = groups G2, G3, G5 (chiauranib 2.5 mg/kg; Reference PD-L1 antibody 1 mg/kg)
[10] = groups G4, G6 (Reference PD-L1 antibody 3 mg/kg; chiauranib 2.5 mg/kg in the combination)
[11] = chiauranib 2.5 mg/kg p.o. QD, Reference PD-L1 antibody 1 mg/kg i.p. Q3D
[12] = chiauranib 5 mg/kg p.o. QD, mouse PD-1 antibody 5 mg/kg i.p. BIW

Row | Molecule | Body weight (g) before administration [1, 9] [g] | Body weight change (g) Day 27 of administration [1, 11] | Body weight (g) Day 27 of administration in groups [1, 11] [g] | toxic side effects on animals / safety [1] | inhibitory effect on growth of MC38-hPD-L1 subcutaneously transplanted tumors (experiment summary) [2] | Tumor volume (mm^3) before administration [2, 9] [mm^3] | Tumor volume (mm^3) Day 27 of administration in groups [2, 11] [mm^3] | inhibitory effect on growth of MC38-hPD-L1 subcutaneously transplanted tumors (tumor volume) [2] | inhibitory effect on growth of MC38-hPD-L1 subcutaneously transplanted tumors (tumor weight) [2] | Tumor weight [2, 11] [g] | TGITV (%) [2, 11] [%] | TGITW (%) [2, 11] [%] | also measured
1 | Reference PD-L1 antibody: constructed and produced by the in-house laboratory according to a sequence of the marketed antibody drug MPDL3280A | 21.6 ± 0.3 | +3.8 g | 25.4 ± 0.4 | do not produce toxic side effects to animals; also recorded: do not produce toxic and side effects on animals | significant inhibitory effects | 104 ± 4 | 1469 ± 144 | significant inhibitory effects | significant inhibitory effects | 1.316 ± 0.106 | 38.5 | 39.8 | Body weight change (g) Day 27 of administration [1, 8]: +3.7 g; Body weight (g) Day 27 of administration in groups [1, 8]: 25.0 ± 0.5 g; Body weight (g) before administration [1, 10]: 21.3 ± 0.5 g; Tumor volume (mm^3) Day 27 of administration in groups [2, 8]: 1207 ± 195 mm^3; Tumor volume (mm^3) before administration [2, 10]: 104 ± 3 mm^3; Tumor weight [2, 8]: 1.182 ± 0.199 g; TGITV (%) [2, 8]: 50.3%; TGITW (%) [2, 8]: 45.9%
2 | avelumab+BSC: PD-L1 antibody drug avelumab (Bavencio, Pfizer and Merck KGaA) plus best supportive care | – | – | – | – | – | – | – | – | – | – | – | – | median OS ([3]; patients with advanced UC after platinum-based chemotherapy): 21.4 months; overall survival (OS) hazard ratio [HR] ([3]; vs BSC alone, 95% CI 0.56, 0.86, 1-sided p=0.0005, all enrolled patients): 0.69; increase of OS ([3]; vs BSC group): more than 7 months
3 | COc1ccc2c(Oc3ccc4c(C(=O)Nc5ccccc5N)cccc4c3)ccnc2c1 [chiauranib, Chiauranib] | 21.1 ± 0.3 | +3.1 g | 24.2 ± 0.6 | do not produce toxic side effects to animals; also recorded: do not produce toxic and side effects on animals | significant inhibitory effects | 104 ± 4 | 1021 ± 158 | significant inhibitory effects | significant inhibitory effects | 0.837 ± 0.108 | 58.6 | 61.7 | Body weight change rate (%) Day 19 [4, 12]: 5.59%; Number of animals of experiment at the beginning/end [4, 12]: 10/10; Average body weight (g) Day 5 ([4]; day of grouping, baseline, mean ± standard error): 21.3 ± 0.3 g; Average body weight (g) Day 19 ([4]; end of experiment, chiauranib 5 mg/kg p.o. QD, mouse PD-1 antibody 5 mg/kg i.p. BIW, mean ± standard error): 22.4 ± 0.3 g; average proportion of spleen lymphocyte subset CD4 [5]: 9.9%; average proportion of spleen lymphocyte subset CD8 [5]: 6.1%; TGI (%) Day 19 (relative tumor inhibition rate) ([6]; (1 - T/C) x 100%, chiauranib 5 mg/kg p.o. QD, mouse PD-1 antibody 5 mg/kg i.p. BIW): 26%; T/C (%) Day 19 ([6]; TRTV/CRTV x 100%, chiauranib 5 mg/kg p.o. QD, mouse PD-1 antibody 5 mg/kg i.p. BIW): 74%; Tumor volume (mm^3) Day 19 ([6]; day 15 of administration, chiauranib 5 mg/kg p.o. QD x 15 days, mouse PD-1 antibody 5 mg/kg i.p. BIW x 5, mean ± standard error): 1527.40 mm^3 and 1527.40 ± 145.56 mm^3; Tumor volume (mm^3) Day 5 ([6]; day of grouping, baseline before treatment, mean ± standard error): 104.09 ± 2.73 mm^3; RTV ([6]; relative tumor volume Vt/V0, Day 19, chiauranib 5 mg/kg p.o. QD, mouse PD-1 antibody 5 mg/kg i.p. BIW): 14.51; relative tumor inhibition rate [7]: 39%
